Results reported in patent publication US6861554B2, “Creatine salt having enhanced nutritional and therapeutic efficacy and compositions containing same” (Biosalts s.r.l., priority 2001, dated 2005).

Tests used:
muscle cells = assay: increase in glucose uptake by the muscle cells with respect to insulin; format: cell-based
[1] = stability and hygroscopicity of the salt; format: physicochemical

Creatine Taurinate
Glucose uptake (percentage of increase in the glucose uptake by the muscle cells with respect to insulin) (muscle cells; 5.0 grams of substance): 25-28%
hygroscopicity [1]: non hygroscopic
stability [1]: stable

NCCS(=O)(=O)O [Taurine, 2-aminoethanesulphonic acid]
Glucose uptake (percentage of increase in the glucose uptake by the muscle cells with respect to insulin) (muscle cells; 2.5 grams of substance): 15-18%

CN(CC(=O)O)C(=N)N.O [Creatine monohydrate, creatine monohydrate]
Glucose uptake (percentage of increase in the glucose uptake by the muscle cells with respect to insulin) (muscle cells; 2.5 grams of substance): 1-2%
